Source: publication PMC9552116 (Biochemistry and Biophysics Reports, 2022)
Bridge positions count the residues as written; N and C are the ends. Square brackets hold non-standard residues; d marks the D form. Peptide text beside a SMILES is read from it. * marks the point of attachment. Biotin = O=C1N[C@H]2[C@H](CS[C@H]2CCCCC(=O)*)N1; Nle = CCCC[C@H](N)C(=O)O

Experiments:
[1] = molecular target: human LRP1(CL2)-Fc (Homo sapiens, UniProt Q07954); assay: Cell-free ELISA, binding of biotinylated peptide to captured LRP1; conditions: Fig. 3, n = 3
[2] = molecular target: human LRP1(CL3)-Fc (Homo sapiens, UniProt Q07954); assay: as above; conditions: Fig. 3, n = 3
[3] = molecular target: human LRP1(CL4)-Fc (Homo sapiens, UniProt Q07954); assay: as above; conditions: Supplementary Fig. S1
[4] = tested on: in vitro rat BBB model kit (RBT-24H); assay: BBB permeability in in vitro rat BBB model; format: in vitro ADME; conditions: 1 μM input, 30 min, 37 °C, fluorescence, n = 1
[5] = tested on: LRP1(CL2); conditions: ref [18]; cited from earlier work
[6] = tested on: LRP1; conditions: read-out: LRP1-binding EC50; ref [18]; cited from earlier work

binding to LRP1(CL2) [1] | binding to LRP1(CL3) [2] | Compound | other results
no binding or slight binding | no binding or slight binding | CCCC[C@H](NC(=O)[C@H](CCC(=O)O)NC(=O)[C@H](C)NC(=O)[C@H](CC(C)C)NC(=O)[C@H](CCCC)NC(=O)[C@H](Cc1ccc(O)cc1)NC(=O)[C@H](CCCCN)NC(=O)[C@H](Cc1ccc(O)cc1)NC(=O)[C@@H](NC(=O)[C@H](CS)NC(=O)[C@@H]1CCCN1C(=O)[C@@H](NC(=O)CNC(=O)[C@H](CCCCNC(=O)CCCC[C@@H]1SC[C@@H]2NC(=O)N[C@@H]21)NC(C)=O)[C@@H](C)O)[C@@H](C)O)C(=O)N[C@@H](CS)C(=O)O [Biotin-KS-487(linear)] (Ac-K(Biotin)GTPCTYKY[Nle]LAE[Nle]C-OH) | –
no binding or slight binding | no binding or slight binding | CCCC[C@@H]1NC(=O)[C@H](CCC(=O)O)NC(=O)[C@H](C)NC(=O)[C@H](CC(C)C)NC(=O)[C@H](CCCC)NC(=O)[C@H](Cc2ccc(O)cc2)NC(=O)[C@H](CCCCN)NC(=O)[C@H](Cc2ccc(O)cc2)NC(=O)[C@H]([C@@H](C)O)NC(=O)[C@@H](NC(=O)[C@@H]2CCCN2C(=O)[C@@H](NC(=O)CNC(=O)[C@H](CCCCNC(=O)CCCC[C@@H]2SC[C@@H]3NC(=O)N[C@@H]32)NC(C)=O)[C@@H](C)O)CSSC[C@@H](C(=O)O)NC1=O [Biotin-KS-487] (Ac-K(Biotin)GTPCTYKY[Nle]LAE[Nle]C-OH; disulfide 5-15) | –
– | – | CSCC[C@@H]1NC(=O)[C@H](CCC(=O)O)NC(=O)[C@H](C)NC(=O)[C@H](CC(C)C)NC(=O)[C@H](CCSC)NC(=O)[C@H](Cc2ccc(O)cc2)NC(=O)[C@H](CCCCN)NC(=O)[C@H](Cc2ccc(O)cc2)NC(=O)[C@H]([C@@H](C)O)NC(=O)[C@@H](NC(=O)[C@@H]2CCCN2C(=O)[C@@H](NC(=O)CNC(=O)[C@H](CCCCNC(=O)CCCC[C@@H]2SC[C@@H]3NC(=O)N[C@@H]32)NC(C)=O)[C@@H](C)O)CSSC[C@@H](C(=O)O)NC1=O [Biotin-Pep0] (Ac-K(Biotin)GTPCTYKYMLAEMC-OH; disulfide 5-15; N-terminus and C-terminus assumed) | binding activity to LRP1(CL4) [3]: moderate binding activity
– | – | C[C@@H](O)[C@H](NC(=O)CNC(=O)[C@@H](N)CCCCNC(=O)c1ccc2c(c1)C(=O)OC21c2ccc(O)cc2Oc2cc(O)ccc21)C(=O)N[C@@H](Cc1ccccc1)C(=O)N[C@@H](Cc1ccccc1)C(=O)N[C@@H](Cc1ccc(O)cc1)C(=O)NCC(=O)NCC(=O)N[C@@H](CO)C(=O)N[C@@H](CCCNC(=N)N)C(=O)NCC(=O)N[C@@H](CCCCN)C(=O)N[C@@H](CCCNC(=N)N)C(=O)N[C@@H](CC(N)=O)C(=O)N[C@@H](CC(N)=O)C(=O)N[C@@H](Cc1ccccc1)C(=O)N[C@@H](CCCCN)C(=O)N[C@H](C(=O)N[C@@H](CCC(=O)O)C(=O)N[C@@H](CCC(=O)O)C(=O)N[C@@H](Cc1ccc(O)cc1)C(=O)O)[C@@H](C)O [Pep 5FAM-ANG2] | % input crossed to the brain side [4]: below 0.5%
– | – | TWPKHFDKHTFYSILKLGKH-OH [Pep L57] | cross-reactivity to LRP1(CL2) [5]: cross-reactivity; EC50 [6]: 0.045 µM
